The target in one test is JAK3 (Homo sapiens (Human), UniProt P52333). As to the kind of experiment: Jak Biochemical HTRF Assay (JAK3). Particulars: recombinant GST-tagged catalytic domain, [ATP] 2.9 μM. As for the experimental part: (§1) Biological Assays Jak Biochemical HTRF Assay Protocol
The ability of compounds to inhibit the activity of JAK1, JAK2, JAK3, and Tyk2 was measured using a recombinant purified GST-tagged catalytic domain for each enzyme (Invitrogen JAK1 #M4290, JAK2 #M4290, JAK3 #M4290, Tyk2 #M4290) in an HTRF format biochemical assay. […] Subsequent reagent additions employed an Agilent Bravo. […] After equilibration, 2 μL of 10×ATP in 1× assay buffer was added to initiate the kinase reaction and the plates were shaken and then incubated at room temperature for 120 minutes. At the end of the incubation, 20 μL of 2× stop buffer (streptavidin-Dylight 650 (Thermo #84547B100 mL), Eu-tagged pY20 antibody (Perkin Elmer #AD0067), EDTA, HEPES, and Triton) was added to quench the reaction. […] After normalization to untreated controls, the percent inhibition of the HTRF signal at each compound concentration was calculated. The plot of percent inhibition versus the log of compound concentration was fit with a 4-parameter dose response equation to calculate IC50 values.
On the technique in general: Time-resolved FRET reads energy transfer from a long-lived donor to a nearby acceptor.

For a further test, the target named is JAK2 (Homo sapiens (Human), UniProt O60674). Briefly: Jak Biochemical HTRF Assay (JAK2). The following applies: recombinant GST-tagged catalytic domain, [ATP] 8.5 μM. As for the experimental part: as §1
The ability of compounds to inhibit the activity of JAK1, JAK2, JAK3, and Tyk2 was measured using a recombinant purified GST-tagged catalytic domain for each enzyme (Invitrogen JAK1 #M4290, JAK2 #M4290, JAK3 #M4290, Tyk2 #M4290) in an HTRF format biochemical assay. […] The basic assay protocol is as follows: First, 250 nL of diluted compounds in DMSO were dispensed into the wells of a dry 384-well Black plate (Greiner #781076) using a Labcyte Echo 555 acoustic dispenser. Subsequent reagent additions employed an Agilent Bravo. Next, 18 μL of 1.11× enzyme and 1.11× substrate in 1× assay buffer (Invitrogen kinase buffer # PV3189, 2 mM DTT, 0.05% BSA) were added to the wells and shaken and then preincubated for 30 minutes at room temperature to allow compound binding to equilibrate. After equilibration, 2 μL of 10×ATP in 1× assay buffer was added to initiate the kinase reaction and the plates were shaken and then incubated at room temperature for 120 minutes. At the end of the incubation, 20 μL of 2× stop buffer (streptavidin-Dylight 650 (Thermo #84547B100 mL), Eu-tagged pY20 antibody (Perkin Elmer #AD0067), EDTA, HEPES, and Triton) was added to quench the reaction. Plates were shaken and centrifuged and then incubated 60 minutes at room temperature and then read on a Perkin Elmer Envision (λex=337 nm, λem=665 and 615 nm, TRF delay time=20 μs). HTRF signal=10,000*665 nm reading 615 nm reading. After normalization to untreated controls, the percent inhibition of the HTRF signal at each compound concentration was calculated. The plot of percent inhibition versus the log of compound concentration was fit with a 4-parameter dose response equation to calculate IC50 values.

Chain of JAK2 (O60674 849-1124): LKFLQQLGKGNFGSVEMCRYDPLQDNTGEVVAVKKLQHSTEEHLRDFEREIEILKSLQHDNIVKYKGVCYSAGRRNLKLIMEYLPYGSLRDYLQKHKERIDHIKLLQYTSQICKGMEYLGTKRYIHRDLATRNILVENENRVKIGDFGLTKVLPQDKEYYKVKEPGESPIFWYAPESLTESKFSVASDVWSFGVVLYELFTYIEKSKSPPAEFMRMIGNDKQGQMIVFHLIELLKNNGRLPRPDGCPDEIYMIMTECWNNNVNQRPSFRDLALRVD
Chain of JAK3 (P52333 822-1111): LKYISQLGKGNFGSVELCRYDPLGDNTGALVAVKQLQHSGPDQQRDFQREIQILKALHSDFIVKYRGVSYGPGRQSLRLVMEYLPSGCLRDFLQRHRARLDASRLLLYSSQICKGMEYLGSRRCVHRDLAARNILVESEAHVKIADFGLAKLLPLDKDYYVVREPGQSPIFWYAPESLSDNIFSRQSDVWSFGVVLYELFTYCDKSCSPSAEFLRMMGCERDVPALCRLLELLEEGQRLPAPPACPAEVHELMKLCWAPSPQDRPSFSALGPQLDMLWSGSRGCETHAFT

What is called IC50 is the concentration that inhibits the measured activity by half. On to `CCOC(=O)c1c[nH]c2ncnc(-c3ccc(C(=O)N(C)C)cc3)c12` [Example 1-13, ethyl 4-[4-(dimethylcarbamoyl)phenyl]-7H-pyrrolo[2,3-d]pyrimidine-5-carboxylate], for which the IC50 on JAK3 (given as range class) was 10 to 500 nM; at JAK2 (given as range class), greater than 500 nM.

As for `CCOC(=O)c1c[nH]c2ncnc(-c3ccncc3)c12` [Example 1-14, ethyl 4-pyridin-4-yl-7H-pyrrolo[2,3-d]pyrimidine-5-carboxylate], the half-maximal inhibitory concentration (IC50) on JAK3 (given as range class) was 10 to 500 nM; on JAK2 (given as range class), greater than 500 nM.

On to `CCOC(=O)c1c[nH]c2ncnc(-c3ccc(OC)cc3)c12` [Example 1-15, ethyl 4-(4-methoxyphenyl)-7H-pyrrolo[2,3-d]pyrimidine-5-carboxylate], for which the IC50 is 5.7 nM at JAK3 and 134 nM at JAK2.

On to `CCOC(=O)c1c[nH]c2ncnc(-c3cccc(OC)c3)c12` [Example 1-17, ethyl 4-(3-methoxyphenyl)-7H-pyrrolo[2,3-d]pyrimidine-5-carboxylate], for which the IC50 at JAK3 (given as range class) and at JAK2 (given as range class) was 10 to 500 nM in each case.

`CCOC(=O)c1c[nH]c2ncnc(C3=CCN(C(=O)OC(C)(C)C)CC3)c12` [Example 1-18, ethyl 4-[1-(tert-butoxycarbonyl)-1,2,3,6-tetrahydropyridin-4-yl]-7H-pyrrolo[2,3-d]pyrimidine-5-carboxylate]: the IC50 on JAK3 (given as range class) and at JAK2 (given as range class) was 10 to 500 nM each time.

As for `CCOC(=O)c1c[nH]c2ncnc(C3=CCCN(C(=O)OC(C)(C)C)C3)c12` [Example 1-19, ethyl 4-[1-(tert-butoxycarbonyl)-1,2,5,6-tetrahydropyridin-3-yl]-7H-pyrrolo[2,3-d]pyrimidine-5-carboxylate], the figures for the IC50 at JAK3 (given as range class) and on JAK2 (given as range class) were 10 to 500 nM and greater than 500 nM, respectively.

With `CCOC(=O)c1c[nH]c2ncnc(C3=CCN(C(=O)OC(C)(C)C)C3)c12` [Example 1-20, ethyl 4-[1-(tert-butoxycarbonyl)-2,5-dihydro-1H-pyrrol-3-yl]-7H-pyrrolo[2,3-d]pyrimidine-5-carboxylate], the IC50 is 10 to 500 nM on JAK3 (given as range class) and greater than 500 nM at JAK2 (given as range class).

For `CCOC(=O)c1c[nH]c2ncnc(-c3cccc(OCC(F)(F)F)c3)c12` [Example 1-21, ethyl 4-[3-(2,2,2-trifluoroethoxy)phenyl]-7H-pyrrolo[2,3-d]pyrimidine-5-carboxylate], the IC50 on JAK3 is 3.5 nM; at JAK2, 73 nM.

As to `CCOC(=O)c1c[nH]c2ncnc(-c3ccc(C)c(N)c3)c12` [Example 1-22, ethyl 4-(3-amino-4-methylphenyl)-7H-pyrrolo[2,3-d]pyrimidine-5-carboxylate], the IC50 stood at 4.6 nM at JAK3 and 78 nM on JAK2.

With `CCOC(=O)c1c[nH]c2ncnc(C3=CCCCC3)c12` [Example 1-23, ethyl 4-cyclohex-1-en-1-yl-7H-pyrrolo[2,3-d]pyrimidine-5-carboxylate], the IC50 on JAK3 worked out at 6 nM; on JAK2, 62 nM.

With `CCOC(=O)c1c[nH]c2ncnc(-c3ccc(Cl)c(N)c3)c12` [Example 1-24, ethyl 4-(3-amino-4-chlorophenyl)-7H-pyrrolo[2,3-d]pyrimidine-5-carboxylate], the IC50 was determined as 7.5 nM on JAK3 and 125 nM on JAK2.

Take `CCOC(=O)c1c[nH]c2ncnc(-c3ccc4sc(C)nc4c3)c12` [Example 1-25, ethyl 4-(2-methyl-1,3-benzothiazol-5-yl)-7H-pyrrolo[2,3-d]pyrimidine-5-carboxylate]: the IC50 at JAK3 (given as range class) and at JAK2 (given as range class) was 10 to 500 nM throughout.

Consider `CCOC(=O)c1c[nH]c2ncnc(-c3cccc(OC(F)(F)F)c3)c12` [Example 1-26, ethyl 4-[3-(trifluoromethoxy)phenyl]-7H-pyrrolo[2,3-d]pyrimidine-5-carboxylate], for which the half-maximal inhibitory concentration (IC50) on JAK3 (given as range class) and at JAK2 (given as range class) was 10 to 500 nM each time.

With `CCOC(=O)c1c[nH]c2ncnc(-c3cnn(C)c3)c12` [Example 1-27, ethyl 4-(1-methyl-1H-pyrazol-4-yl)-7H-pyrrolo[2,3-d]pyrimidine-5-carboxylate], the IC50 on JAK3 (given as range class) is 10 to 500 nM; at JAK2 (given as range class), greater than 500 nM.

These data come from US8993756B2 (Merck Sharp & Dohme Corp., priority 2011, dated 2015).
